The source of these data is patent US8105798B2, “Cytoplasmic activity of retinoid X receptor and its regulation by ligands and dimerization” (The Burnham Institute, priority 2003, dated 2012).

The subject of assay [1] is CV-1, MGC80-3, HEK293T and HCT116 cells. Briefly: apoptosis determined by DAPI staining. Type of assay: cell-based. Conditions: for effect on sulindac sulfide-induced apoptosis: RXRα ligands given with sulindac sulfide. On the procedure:
To determine the involvement of RXRα in sulindac sulfide-induced apoptosis of cancer cells, its effect on apoptosis of CV-1 cells (available from American Type Cell Culture, Manassas, Va., as accession number CCL-70) in the absence or presence of RXRα transfection was evaluated. FIG. 13a. RXR was cloned into a pGFP.C2 vector (GenBank Accession #: U19281) according to the procedure of Li et al., Science 289, 1159-1164 (2000). CV-1 cells were transfected with or without RXRα prior to treatment with sulindac sulfide (75.micro.M) for 24 hr. […] Louis, Mo., as catalogue number D9542), and the presence of nuclear fragmentation and/or chromatin condensation is an indicator of apoptosis. […] The requirement of RXRαwas also examined using RXRα siRNA SEQ ID No.: 12 approach. MGC80-3 cells, HEK293T (ATCC, accession number CCL-1573) and HCT116 (ATCC, accession number CCL-247) cell lines were transfected with RXRα siRNA or control siRNA using oligofectamine (from Invitrogen, Corp). Cell samples from each cell line were lysed and the cell extracts were prepared by immunoblotting to determine RXRα expression. Cells transfected with RXR.alpha siRNA or control siRNA were treated with sulindac sulfide (75.micro.M) for 24 hr, and apoptosis was determined by DAPI staining.

In assay [2] the test system is TR3. Description: subcellular localization of TR3 and RXRα/TR3 heterodimer by confocal microscopy. In kind it is cell-based. The procedure:
FIG. 10 is a series of confocal microscope images of immunostained PC12 cells illustrating that binding of 15d-PGJ2 to RXRα induces translocation of RXRα homodimer/monomer or TR3/RXRα heterodimer from the nucleus to the cytoplasm. Expression vectors for Flag-RXRα and GFP-TR3 were transfected into PC12 cells alone or together. Cells were then treated with 15d-PGJ2 (5.micro.M) for 3 hr, then immunostained with anti-Flag antibody to detect RXRα Flag-RXRα and GFP-TR3 were visualized by confocal microscopy, and their images merged.
In the absence of TPA, both TR3 and RXRα reside mainly in the nucleus. […] (FIG. 2).
(§1) Because RXR heterodimerizes with TR3, Inventor examined the effect of 15d-PGJ2 on TR3 subcellular localization in PC12 phaeochromocytoma cells.
Either TR3 alone, RXRα alone or TR3 and RXRα was transfected into HEK293T cells. Cells were then treated with sulindac sulfide (75.micro.M) for 6 hr. RXR.alpha and TR3 localization was determined by immunostaining, and cells were also stained by DAPI. […] Thus, the effect of sulindac sulfide on the cytoplasmic localization of TR3 depends on RXRα expression, probably due to their heterodimerization. Thus, sulindac sulfide induces nuclear export of RXRα and RXRα/TR3 heterodimer. (FIG. 14b).
The effect of sulindac sulfide on mitochondrial targeting of RXRα and TR3 was determined by treating H460 lung cancer cells with 75 micro.M sulindac sulfide for 6 hours and visualization of the cellular localization of these proteins by immunostaining. A two stage detection system was used having either anti-RXR or anti TR3 as a first stage (Santa Cruz Biotechnology and Abgent, respectively). In the absence of treatment, both RXRα and TR3 were found mainly in the nucleus.

The target of assay [3] is T1, RXRα (Homo sapiens, UniProt P19793).
T1 sequence (P19793 1-462): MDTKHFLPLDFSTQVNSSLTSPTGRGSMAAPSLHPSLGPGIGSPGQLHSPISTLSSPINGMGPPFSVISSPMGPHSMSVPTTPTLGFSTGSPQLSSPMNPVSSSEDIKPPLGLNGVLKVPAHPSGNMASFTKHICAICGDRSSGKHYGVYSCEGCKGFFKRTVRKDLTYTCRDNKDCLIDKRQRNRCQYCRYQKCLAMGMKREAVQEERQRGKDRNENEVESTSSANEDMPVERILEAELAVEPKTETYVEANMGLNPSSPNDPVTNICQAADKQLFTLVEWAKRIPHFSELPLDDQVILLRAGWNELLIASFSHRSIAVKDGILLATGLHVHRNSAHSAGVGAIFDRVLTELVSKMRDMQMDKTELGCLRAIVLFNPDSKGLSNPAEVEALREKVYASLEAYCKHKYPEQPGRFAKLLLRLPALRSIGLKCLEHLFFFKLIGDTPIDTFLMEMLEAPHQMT
Description: subcellular localization of RXRα by immunostaining / confocal microscopy. Type of assay: cell-based. As to conditions: for nuclear export of GFP fusion with amino acids 348-398 of RXRα: HEK293T cells; for GFP-RXRα association with mitochondria (overlay with Mito-RFP) / GFP-RXRα localization: COS-7 cells, 10^-4 M, 4 hours. The procedure: Expression vector for Flag-RXRα was transfected into the indicated cell line. Cells were then treated with 15d-PGJ2 (5.micro.M) for 3 hr, then immunostained with anti-Flag antibody to detect RXRα Flag-RXRα was visualized by confocal microscopy.
Expression vectors for Flag-RXRα and GFP-TR3 were transfected into PC12 cells alone or together. Cells were then treated with 15d-PGJ2 (5.micro.M) for 3 hr, then immunostained with anti-Flag antibody to detect RXRα Flag-RXRα and GFP-TR3 were visualized by confocal microscopy, and their images merged.
Cos7 cells were transfected with GFP-RXRα and Mito-REP, and treated with or without 10^-4 M indomethacin or diclofenac for 4 hours. The distribution of GFP-RXRα and Mito-REP was visualized by confocal microscopy.
For example, cells such as LNCaP prostate cancer cells are induced to apoptosis using agents such as the phorbol ester, TPA (12-0-tetradecanolphorbol 13-acetate, Cell Signaling Technology Cat. No.: 9905).
For example, heat shock protein 60 (Hsp60) is a mitochondrial specific protein. […] The treated cells are then incubated with a conjugated secondary antibody and visualized using confocal microscopy. In this example, Cy-3 or FITC conjugated secondary antibodies were used for visualizing the sub-cellular localization of RXRα or Hsp60, respectively.
A GFP-RXRα expression vector was transfected into COS-7 cells and GFP-RXRα was expressed.
A fusion protein created by combining GFP and amino acids 348-398 of RXRα, is transfected into HEK293T cells.
To determine the role of 15d-PGJ2 binding on the new RXR pathway, a confocal microscopy analysis was performed to determine subcellular localization of RXRα in the presence or absence of 15d-PGJ2.
as §1
To determine the mechanism of RXRα mediated apoptosis in the presence of sulindac sulfide, Inventors examined the effect of sulindac sulfide on subcellular localization of RXRα

In assay [4] the test system is RARβ expression. Briefly: RARβ protein expression by Western analysis in cancer cells. Type of assay: cell-based.
Description: The indicated cancer cells were treated for 24 h with or without trans-RA (10^-6 M), or 15d-PGJ2 (5.micro.M) or their combination. RARβ protein expression was determined by Western analysis.
The effect of sulindac sulfide on RXR transactivation was investigated for its effect of RARβ induction by all-trans-retinoic acid (tRA), which activates the RA response element (βRARE) in the RARβ promoter through an RAR/RXR heterodimer. […] The βRARE could be also activated by an RXR/PPAR heterodimer. […] Cells were treated for 24 hr with or without with trans-RA (10^-6 M), or SR11237 (10^-6 M), ciglitazone (10.micro.M), sulindac sulfide (100.micro.M) or the indicated combinations. RARβ protein expression was determined by Western analysis.
Assay [5] has as its target T2, TR3/RXRα heterodimer (Homo sapiens, UniProt P19793).
T2 construct: made in house; host or cells: in vitro translation
Description: gel shift assay (EMSA) of TR3/RXRα heterodimer binding to βRARE. Type of assay: biochemical.
Description: In vitro translated RXRα and TR3 were incubated with 15d-PGJ2 (10^-5 M) for 15 min in the absence or presence of anti-TR3 or anti-RXRα antibody. Following a further incubation with ^32P-radiolabelled βRARE, the reactions were analyzed by EMSA.
To study whether 15d-PGJ2 acted on the TR3/RXRα heterodimer to inhibit the heterodimer activity, Inventor investigated whether 15d-PGJ2 affected binding of the TR3/RXRα heterodimer to the beta.RARE by gel shift assay.
RXRα and TR3 proteins are incubated in the absence or presence of a test compound. Following incubation, the mixture is incubated with ^23P-labeled βretinoic acid response element (βRARE), and the binding of the RXRα/TR3 heterodimer is analyzed by the gel-shift assay. […] The enhancement of the heterodimer binding by a compound will indicate that the compound retains the RXRα/TR3 heterodimer in the nucleus and likely induces transcriptional activity of the heterodimer through its induction of RXRα/TR3 heterodimerization at their LBD dimerization interfaces.

The target of assay [6] is T3, RXRα/IKK interaction (Homo sapiens, UniProt P19793).
T3 construct: expressed in transfected cells; host or cells: HEK293T, pcDNA3 expression vectors
Briefly: co-immunoprecipitation assay of RXRα with IKK. Type of assay: cell-based. Conditions: HEK293T cells, HA-IKKγ and Flag-RXRα; BI419 10^-6 M, 15d-PGJ2 5 μM, sulindac sulfide 75 μM, 6 hr. The text has this: IKK is composed of three subunits: IKKα and IKKβ, the catalytic subunits, and IKKγ, a regulatory subunit. IKK activation is required for NF-kB activation through its phosphorylation and degradation of IkB in response to proinflammatory stimuli. In addition, IKK also regulates cellular processes in a NF-kB-independent manner. We examined whether sulindac sulfide-induced cytoplasmic RXRα could interact with IKK. The indicated expression vector (pcDNA3 from Invitrogen, Corp) was transfected into HEK293T cells alone or together. After transfection, cells were treated with sulindac sulfide (75.micro.M) for 6 hr, and the interaction of RXRα and IKKβ was analyzed by co-immunoprecipitation assay. […] (FIG. 17a). The interaction was also illustrated by their cytoplasmic co-localization in cells treated with sulindac sulfide. (FIG. 17b). […] In this example, H460 cells were treated with or without sulindac sulfide (75.micro.M) for 6 hr, and cells were stained for RXRα and IKKβ (FIG. 17c). […] HA-IKKγ and Flag-RXRα expression vectors were transfected into HEK293T cells alone or together. After transfection, cells were treated with a new retinoid (BI419 (10^-6 M), 15d-PGJ2 (5.micro.M), or sulindac sulfide (75.micro.M) for 6 hr. The interaction of RXRα and IKKγ was studied by co-immunoprecipitation assay.

Assay [7] has as its target T4, RXRα ligand-binding domain (Homo sapiens, UniProt P19793).
T4 construct: made in house; host or cells: E. coli BL21 (pET vector, Novagen)
T4 sequence (P19793 224-462): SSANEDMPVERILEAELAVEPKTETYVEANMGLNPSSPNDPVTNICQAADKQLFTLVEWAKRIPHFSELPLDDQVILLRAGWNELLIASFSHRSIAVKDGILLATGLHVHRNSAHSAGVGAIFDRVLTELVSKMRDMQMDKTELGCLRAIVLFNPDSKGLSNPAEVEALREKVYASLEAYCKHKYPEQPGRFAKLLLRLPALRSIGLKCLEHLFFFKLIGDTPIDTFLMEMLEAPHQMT
Briefly: competition binding assay with [3H]9-cis-RA and RXRα ligand-binding domain. On the procedure:
FIG. 8 is a dose response analysis illustrating that 15d-PGJ2 binds RXRα with high affinity conducted with 15d-PGJ2 in the competition binding assay. […] After separation of bound from free radioactivity by elution through Sephadex G-25 desalting columns. Bound radioactivity eluted was quantitated by liquid scientillation counting.
Therefore, Inventor investigated the possibility that 15d-PGJ2 bound directly to RXRα […] A dose response analysis (FIG. 8) was conducted with 15d-PGJ2 in the competition binding assay.
LBD expressed in E. coli. […] The reactions were then eluted through a Sephadex G-25 column to separate the bound label from free label and the RXRα LBD-bound label was quantitated by liquid scintillation counting.

Entries after “also recorded” stand apart in the source; their conditions may differ.

T2 sequence (P22736 whole entry partner, one chain of several): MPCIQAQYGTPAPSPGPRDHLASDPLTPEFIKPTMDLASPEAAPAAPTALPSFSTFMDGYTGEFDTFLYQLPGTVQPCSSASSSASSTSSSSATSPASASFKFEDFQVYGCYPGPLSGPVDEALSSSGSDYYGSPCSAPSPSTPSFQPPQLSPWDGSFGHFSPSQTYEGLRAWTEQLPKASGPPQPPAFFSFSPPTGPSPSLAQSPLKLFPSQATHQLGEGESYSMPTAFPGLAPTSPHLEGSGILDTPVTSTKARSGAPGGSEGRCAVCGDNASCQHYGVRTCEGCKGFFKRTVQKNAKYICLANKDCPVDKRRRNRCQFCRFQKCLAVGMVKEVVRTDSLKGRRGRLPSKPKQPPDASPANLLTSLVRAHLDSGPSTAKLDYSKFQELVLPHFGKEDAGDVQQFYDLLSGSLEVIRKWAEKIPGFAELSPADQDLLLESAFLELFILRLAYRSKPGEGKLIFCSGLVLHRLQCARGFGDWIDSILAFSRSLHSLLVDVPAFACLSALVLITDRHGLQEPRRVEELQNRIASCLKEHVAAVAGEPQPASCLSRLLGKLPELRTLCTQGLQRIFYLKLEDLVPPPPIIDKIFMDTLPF
T3 sequence (Q9Y6K9 whole entry partner, one chain of several): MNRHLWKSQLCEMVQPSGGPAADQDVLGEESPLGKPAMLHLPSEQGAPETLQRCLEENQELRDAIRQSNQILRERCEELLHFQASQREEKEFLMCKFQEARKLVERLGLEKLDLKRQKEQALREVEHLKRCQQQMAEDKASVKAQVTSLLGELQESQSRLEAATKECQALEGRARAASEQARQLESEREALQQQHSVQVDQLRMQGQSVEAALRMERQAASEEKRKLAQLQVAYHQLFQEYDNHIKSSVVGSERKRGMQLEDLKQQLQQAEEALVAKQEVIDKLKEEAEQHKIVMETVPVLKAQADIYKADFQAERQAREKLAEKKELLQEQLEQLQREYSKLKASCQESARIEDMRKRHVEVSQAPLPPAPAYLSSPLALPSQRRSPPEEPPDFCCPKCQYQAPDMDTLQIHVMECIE
T3 sequence (O14920 whole entry partner, one chain of several): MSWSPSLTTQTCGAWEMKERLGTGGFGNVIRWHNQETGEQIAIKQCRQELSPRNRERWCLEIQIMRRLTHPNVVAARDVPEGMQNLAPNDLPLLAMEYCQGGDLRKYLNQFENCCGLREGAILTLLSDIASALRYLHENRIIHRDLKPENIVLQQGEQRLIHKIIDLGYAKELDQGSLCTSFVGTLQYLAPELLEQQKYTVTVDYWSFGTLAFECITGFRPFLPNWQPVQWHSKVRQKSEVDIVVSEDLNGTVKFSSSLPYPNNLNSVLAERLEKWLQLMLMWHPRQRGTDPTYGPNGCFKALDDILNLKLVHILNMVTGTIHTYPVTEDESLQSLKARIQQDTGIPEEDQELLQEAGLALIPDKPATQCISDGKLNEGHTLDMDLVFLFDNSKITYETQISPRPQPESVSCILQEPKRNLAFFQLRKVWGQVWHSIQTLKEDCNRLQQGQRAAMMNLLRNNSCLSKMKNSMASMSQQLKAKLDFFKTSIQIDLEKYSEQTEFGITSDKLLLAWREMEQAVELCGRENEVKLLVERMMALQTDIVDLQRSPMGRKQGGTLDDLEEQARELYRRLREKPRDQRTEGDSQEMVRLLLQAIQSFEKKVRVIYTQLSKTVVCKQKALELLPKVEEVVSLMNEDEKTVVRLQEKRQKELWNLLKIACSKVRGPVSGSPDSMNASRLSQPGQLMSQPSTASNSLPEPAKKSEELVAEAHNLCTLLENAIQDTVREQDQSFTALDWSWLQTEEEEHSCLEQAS

With `CC1=C(/C=C/C(C)=C\C=C\C(C)=C\C(=O)O)C(C)(C)CCC1` [9-cis-RA], the “effect on sulindac sulfide-induced apoptosis” value in assay [1] is reported as “inhibitory effect”.
In the case of `CCCCC/C=C/C=C1/C(=O)C=C[C@@H]1C/C=C\CCCC(=O)O` [15d-PGJ2, 15-Deoxy-.delta^12,14-prostaglandin J2], in assay [2] (PC12 cells, 5 μM, 3 hr), the “GFP-TR3 localization, cotransfected with Flag-RXRα” value is given as “found in the cytoplasm” and the “GFP-TR3 migration to the cytoplasm, TR3 transfected alone” value was “did not”. Besides, the “transfected Flag-RXRα localization” value in assay [3] (H460 lung cancer or SY5Y neuroblastoma cells, 5 μM, 3 hr) is listed as “significant amount of RXRα was found in the cytoplasm”. For the same compound, the Flag-RXRα localization entry in assay [3] (PC12 cells, 5 μM, 3 hr) is “migrated from the nucleus to the cytoplasm”. Moreover, the RXRα nuclear export result in assay [3] (no conditions given) is recorded as “induce RXRα nuclear export”. Moreover, the “induction of RARβ expression by trans-RA” value in assay [4] (Calu-6 lung and ZR75-1 breast cancer cells, 15d-PGJ2 5 μM, trans-RA 10^-6 M, 24 h) is listed as “potently inhibited”. Moreover, the “RARβ expression in combination with RXR ligands” value in assay [4] (used together with RXR ligands) was “failed to induce”. In addition, the “binding of TR3/RXRα heterodimer to βRARE” value in assay [5] (10^-5 M, 15 min, in vitro translated RXRα and TR3, EMSA) is on record as “completely abolished”. Also, in assay [5] (stated for positive/negative control, no concentration), the “binding of RXRα/TR3 heterodimer to DNA (βRARE), as control in gel-shift screening” value is listed as “abolishes the heterodimer binding”. Further, the “interaction of RXRα with IKKγ” value in assay [6] is given as “further promoted”. Also, in assay [7] (read-out: Ki, displacement of [3H]9-cis-RA binding to the RXR ligand-binding domain, 10 nM [3H]9-cis-RA, bacterially purified RXRα LBD), the Ki was found to be 1.8 µM.
As to `CC1(C)CCC(C)(C)c2cc(C3(c4ccc(C(=O)O)cc4)OCCO3)ccc21` [SR11237], the “effect on sulindac sulfide-induced apoptosis” value in assay [1] is given as “inhibitory effect”.
`CCCCCCCCCCCCCC(=O)O[C@@H]1[C@@H](C)[C@@]2(O)[C@@H](C=C(CO)C[C@]3(O)C(=O)C(C)=C[C@@H]23)[C@H]2C(C)(C)[C@]12OC(C)=O` [TPA, 12-0-tetradecanolphorbol 13-acetate]: the “TR3 and RXRα localization” value in assay [2] (LNCaP cells treated with TPA) is on record as “co-localize to the cytoplasm”. Besides, the “nuclear export of GFP fusion with amino acids 348-398 of RXRα” value in assay [3] was “causes the fusion protein to export from the nucleus”. In assay [3] (LNCaP cells treated with TPA), the “RXRα association with mitochondria (overlay with Hsp60)” value was “associates with mitochondria”. Further, the RXRα localization entry in assay [3] (LNCaP prostate cancer cells, endogenous RXRα, TPA treatment) is given as “found in the cytoplasm”.
Consider `O=C(O)Cc1ccccc1Nc1c(Cl)cccc1Cl` [diclofenac], for which, in assay [3], the “GFP-RXRα association with mitochondria (overlay with Mito-RFP)” value is on record as “associated with mitochondria” and the GFP-RXRα localization entry is “capable of inducing the migration; also recorded: found in the cytoplasm”.
The matching figures for `COc1ccc2c(c1)c(CC(=O)O)c(C)n2C(=O)c1ccc(Cl)cc1` [indomethacin]: “associated with mitochondria” and “capable of inducing the migration; also recorded: found in the cytoplasm”.
In the case of `CCC(=C/[C@H](C)C/C=C/C(C)=C/[C@@H](C)C(=O)[C@@H](C)[C@H](O)[C@@H](C)C/C(C)=C/C(=O)O)/C=C/[C@@H]1OC(=O)C=C[C@@H]1C` [leptomycin-B], in assay [3], the “nuclear export of GFP fusion with amino acids 348-398 of RXRα” value was “inhibited”.
In the case of `CC1=C(CC(=O)O)c2cc(F)ccc2/C1=C\c1ccc([S+](C)[O-])cc1` (stereo not drawn) [sulindac], the “apoptosis, cells without RXRα transfection” value in assay [1] (CV-1 cells, 75 μM, 24 hr, DAPI staining) was “little inducing effect”. In addition, the IC50 in assay [7] is about 100 µM.
